The source made the active and inactive calls.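 How the source made its calls: active means fitted curve falls past a set limit of signal loss at no more than twice the top dose; inconclusive means flat fit between 30 and 70% signal loss, or poor fit; inactive means signal rise, flat within 30%, or crossing too high.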

One assay is described as follows: ATP-based viability loss in HEK293T cells – cell-based, CellTiter-Glo luminescence, cherry-pick, set 3, cytotoxicity control, dose response (AID 720588). As to conditions: HEK293T viability, CellTiter-Glo ATP luminescence, 72 h; at 23.5 µM (top of the series). In general terms: In ATP-based viability assays light output follows the ATP content of the culture.
Take `N#C[C@H]1N[C@H](CO)[C@H]1c1ccc(C#Cc2ccccc2F)cc1`: the activity change, negative = cytotoxicity was -11.8% (inactive).

The assay is the same for the next values; noted with them: HEK293T viability, CellTiter-Glo ATP luminescence, 72 h; at 26 µM (top of the series).
Turning to `O=c1cc(CN2CCN(Cc3ccccc3)CC2)c2ccc(O)c(O)c2o1`, the activity change, negative = cytotoxicity was 28.6% (inactive).
In the case of `CC(=O)Nc1cc(C(=O)NCc2ccco2)ccc1Sc1ccc(F)cc1`, the activity change, negative = cytotoxicity is 12.1% (inactive).
With `Cc1nc2cc(-c3ccc(Cl)cc3)nn2c(C)c1CCC(=O)NC(C)c1ccc2c(c1)OCCO2` (stereo unspecified), the activity change, negative = cytotoxicity was -34.9% (inactive).
On the same count and under the same terms, for `OC[C@H]1O[C@@H](n2cnc3c(NCc4ccco4)ncnc32)[C@H](O)[C@@H]1O` the value was -42.7% (inactive).
Still for that read-out and setting: for `CC(=O)c1ccc(N=C2C(=O)Nc3ccccc32)cc1` the value was -11.5% (inactive).
Same read-out and setting: for `C[C@@H]1CN([C@H](C)CO)S(=O)(=O)c2ccc(C#Cc3ccncc3)cc2O[C@@H]1CN(C)C(=O)Nc1ccc2c(c1)OCO2` the value was -4.95% (inactive); for `O=C(NC(=O)c1ccccc1)Nc1ccccc1`, -31.5% (inactive).
`CCNC(=O)[C@@H]1[C@@H](CO)[C@@H]2Cn3c(ccc(C4=CCCCC4)c3=O)[C@H]1N2CC`: the activity change, negative = cytotoxicity is -16.5% (inactive).
Still for that read-out and setting: next, `Cc1cc(C)cc(C(=O)NC(=S)Nc2ccc(Cc3ccncc3)cc2)c1`: -25.9% (inactive); `COc1ccc(S(=O)(=O)N2CCCc3nc(-c4ccc(F)cc4)ccc32)cc1`: -5.94% (inactive).
On the same count and under the same terms, next, `CCOc1ccc(-c2cc(CCCC(=O)NCc3ccc(C)cc3)no2)cc1`: 8.45% (inactive); `CN(C)c1ncnc2c1ccn2C1OC(CO)C(O)C1O` (stereo unspecified): -37% (inactive); `Cc1cccc(N2CCN(C3C(=O)Nc4ccccc4-n4nnnc43)CC2)c1C` (stereo unspecified): -24.4% (inactive).
On the same count and under the same terms, next, `C[C@@H]1CCCCO[C@H](CN(C)Cc2ccc(C(=O)Nc3ccccc3N)cc2)[C@@H](C)CN([C@@H](C)CO)C(=O)c2cc(NS(=O)(=O)c3ccc(Cl)cc3)ccc2O1`: -25.9% (inactive); `COc1ccc(/C=C2\Oc3ccccc3C2=O)cc1`: 7.88% (inactive); `Cc1ccc(NC(=O)CCN2CCCCC2)cc1`: 17.2% (inactive).
For the compound `COCCCNc1ccn2nc(-c3ccccc3)cc2n1`, the activity change, negative = cytotoxicity was -27.1% (inactive).
The same measure, in the same setting: for `Cc1ccccc1N=Nc1c(O)n(C)c2ccccc12` the value was 2.96% (inactive); for `Cc1ccc(Cl)cc1NC(=O)Cn1cc(C(F)(F)F)cc(Cl)c1=O`, 0.88% (inactive).
Still for that read-out and setting: next, `CC(=O)Nc1cccc(-c2ccnc3c2CC(C)(C(=O)NCc2ccc(N(C)C)cc2)O3)c1` (stereo unspecified): -10.9% (inactive); `C[C@@H]1CN([C@H](C)CO)C(=O)c2cc(NS(=O)(=O)c3ccc(Cl)cc3)ccc2O[C@@H]1CN(C)Cc1ccc(Cl)c(Cl)c1`: -9.51% (inactive).
Consider `CCCCN=C(NNc1ccc(Br)cc1)C(=O)OCC`, for which the activity change, negative = cytotoxicity was -39.4% (inactive).
Still for that read-out and setting: next, `C[C@@H]1CN([C@@H](C)CO)C(=O)Cc2cc(N(C)C)ccc2O[C@@H]1CN(C)Cc1ccccc1`: -17.5% (inactive); `O=C1C(=O)N(CCS(=O)(=O)c2ccccc2)c2ccccc21`: 17.1% (inactive).
The same measure, in the same setting: next, `O=C(O)c1ccc(N/N=C/c2c(F)cccc2Cl)cc1`: -29.9% (inactive).
Same read-out and setting: for `CN=c1scc(-c2ccccc2F)n1/N=C/c1ccc(O)c(O)c1O` the value was -25.3% (inactive); for `CCCn1c(C)cc(C(=O)CN2C(=O)c3ccccc3S2(=O)=O)c1C`, 4.1% (inactive).
Turning to `O=c1[nH]c(=O)n(C2C[C@H](O)[C@@H](CO)O2)cc1C(F)(F)F` (stereo partly specified), the activity change, negative = cytotoxicity is -9.97% (inactive).
With `O=C(CN1C(=O)C(=O)c2ccccc21)c1ccc(Cl)cc1`, the activity change, negative = cytotoxicity is -23.4% (inactive).
Consider `Cc1ccc(/C=C/C(=O)N2CCN(S(=O)(=O)c3c(C)c(C)cc(C)c3C)CC2)o1`, for which the activity change, negative = cytotoxicity was 16.1% (inactive).
Same read-out and setting: next, `C(=Cc1c[nH]c2ccccc12)c1ccc2ccccc2n1`: -26.3% (inactive).
On to `CCC(C)Cn1c(O)cc2nn(-c3nc4ccccc4s3)c(=O)c-2c1C` (stereo unspecified), for which the activity change, negative = cytotoxicity is 3.58% (inactive).
Still for that read-out and setting: next, `COc1ccc(NS(=O)(=O)c2cc(NC(=O)CNC(=O)c3cccc(OC)c3)ccc2C)cc1`: -20.6% (inactive); `C[C@H](CO)N1C[C@H](C)[C@H](CN(C)Cc2ccc(C(=O)Nc3ccccc3N)cc2)Oc2ccc(N(C)C)cc2C1=O`: -25.7% (inactive); `COc1ccc(C(=O)NCCNc2nc3cc(C)cc(C)c3cc2C#N)c(OC)c1`: -16.7% (inactive).
Same read-out and setting: next, `CCS(=O)(=O)N1Cc2ccccc2CC1C(=O)Nc1nnc(SCc2ccc(C#N)cc2)s1` (stereo unspecified): -8.94% (inactive); `Nc1sc(-c2ccccc2)cc1-c1n[nH]c(=S)n1C1CCCCC1`: -4.9% (inactive).
Take `C[C@H]1CN([C@@H](C)CO)C(=O)Cc2cc(NC(=O)CCCCCC(=O)Nc3ccccc3N)ccc2O[C@H]1CN(C)Cc1ccc(C(F)(F)F)cc1`: the activity change, negative = cytotoxicity was -19% (inactive).
Still for that read-out and setting: for `CCOc1ccc(C(c2c(NC(=O)c3ccccc3)sc(C)c2C)N2CCN(CCO)CC2)cc1` (stereo unspecified) the value was -15.2% (inactive); for `O=C(N/N=C/c1cnc(N2CCCCC2)s1)c1ccc(C(F)(F)F)cc1`, -9.42% (inactive).
On the same count and under the same terms, for `O=C(O)c1ccc(N/N=C/c2c[nH]c3ccccc23)cc1` the value was 6.31% (inactive).
On the same count and under the same terms, next, `Cc1[nH][nH]c(=O)c1C(c1c(C)[nH][nH]c1=O)c1cn(Cc2ccc(Cl)c(Cl)c2)c2ccccc12`: -16% (inactive); `Cc1ccc2c(=O)n3c(nc2c1)C(Cc1ccc(O)cc1)NC(=O)c1cc2ccccc2cc1-3` (stereo unspecified): -16.8% (inactive); `C(=N\Nc1ccc2ccccc2n1)/c1ccc2c(c1)OCO2`: -17.5% (inactive).
Take `CCc1cnc(N2[C@H](C#N)[C@H](c3ccc(C#Cc4ccccc4F)cc3)[C@H]2CO)s1`: the activity change, negative = cytotoxicity is -15.3% (inactive).
On the same count and under the same terms, for `CC(=NNc1ccc2ccccc2n1)c1ccccc1O` the value was -9.29% (inactive); for `C[C@H]1CCCCO[C@H](CN(C)Cc2ccc(C(F)(F)F)cc2)[C@@H](C)CN([C@@H](C)CO)C(=O)c2cc(NC(=O)Nc3ccccc3)ccc2O1`, 0.212% (inactive); for `COc1cccc(OC)c1C(=O)Nc1cc(C)nn1-c1nc2ccccc2[nH]1`, -11.9% (inactive).
On the same count and under the same terms, for `CCOc1ccc2nc(NC3=NC(c4ccc(OC)cc4)CC(=O)N3)nc(C)c2c1` (stereo unspecified) the value was -23.2% (inactive).
Take `CN(C)C(=S)N=Nc1[nH]c2ccccc2c1O`: the activity change, negative = cytotoxicity is 7.38% (inactive).
Still for that read-out and setting: next, `C[C@H]1CN([C@@H](C)CO)C(=O)c2cc(NS(=O)(=O)c3ccc(Cl)cc3)ccc2O[C@H]1CN(C)Cc1ccc(C(=O)Nc2ccccc2N)cc1`: -0.354% (inactive); `Nc1ccc(Oc2ccccc2-c2ccccc2)cc1`: -8.94% (inactive); `C[C@@H]1CN([C@@H](C)CO)S(=O)(=O)c2ccc(C#Cc3ccncc3)cc2O[C@H]1CN(C)C(=O)C1CCOCC1`: 19.2% (inactive).
Regarding `COc1ccc2oc(-c3ccccc3)cc(=O)c2c1`, the activity change, negative = cytotoxicity is -22.5% (inactive).
The same measure, in the same setting: for `CC(=O)c1ccc(N=Nc2ccc(C)cc2)cc1` the value was -17% (inactive); for `COc1ccc(/C=C2/SC(=S)N(CCCC(=O)Nc3ccccc3C(=O)O)C2=O)cc1`, -21% (inactive); for `Cc1ccc(N=C2NC(=O)/C(=C\c3cccs3)S2)cc1C`, -13% (inactive).
For the compound `COc1ccc(N=C(NN)c2ccc3ccccc3n2)cc1`, the activity change, negative = cytotoxicity was -17.4% (inactive).
On to `COc1ccc(CCC(C)NCC2CCCCC2)cc1` (stereo unspecified), for which the activity change, negative = cytotoxicity is 4.78% (inactive).
With `COc1cc(/C=N/NS(=O)(=O)c2ccc3ccccc3c2)ccc1OCc1ccc(C(=O)O)cc1`, the activity change, negative = cytotoxicity is -17.5% (inactive).
On the same count and under the same terms, next, `Cc1ccc2oc(/N=C(\N)NC(=O)C(C)(C)C)nc2c1`: -11% (inactive); `COc1ccccc1NS(=O)(=O)c1cc(NC(=O)c2cc3ccccc3oc2=O)ccc1C`: -6.46% (inactive); `Cc1ccc(S(=O)(=O)N(C)C[C@@H]2Oc3cc(C#Cc4ccncc4)ccc3S(=O)(=O)N([C@@H](C)CO)C[C@H]2C)cc1`: -17% (inactive).
Turning to `CCCn1nnc(NC(=S)NC(=O)C(C)(C)C)n1`, the activity change, negative = cytotoxicity was -9.98% (inactive).
Still for that read-out and setting: for `C[C@H]1CN([C@@H](C)CO)C(=O)Cc2cc(NC(=O)CCCCCC(=O)Nc3ccccc3N)ccc2O[C@H]1CN(C)Cc1ccc(Oc2ccccc2)cc1` the value was -3.08% (inactive); for `O=C1CCC2S/C(=C/Nc3ccc(C(F)(F)F)cc3)C(=O)N12` (stereo unspecified), -9.48% (inactive).
Still for that read-out and setting: next, `COc1cc(-c2cnc3c(NC=O)cc(-c4cccc(NC(C)=O)c4)cn23)cc(OC)c1OC`: 27.3% (inactive); `O=C(O)c1ccc2cc(-c3ccccc3)[nH]c2c1`: -28.5% (inactive).
Turning to `COc1ccc(/C=N/Nc2ccc(C(=O)O)cc2)cc1Br`, the activity change, negative = cytotoxicity is -6.35% (inactive).
In the case of `COc1cc(C(c2c(C)[nH][nH]c2=O)c2c(C)[nH][nH]c2=O)ccc1OC(C)C`, the activity change, negative = cytotoxicity is -1.41% (inactive).
